# Source: patent publication US9359371B2, “Bicyclic substituted pyrimidine compounds” (Xuanzhu Pharma Co., Ltd., priority 2012, dated 2016)
# Where two headings read alike, the source gives them in different places.
# Legend:
# [1] = Pharmacokinetics (PK) in SD rats; type: in vivo; conditions: rat; for AUC(0-inf) / Cmax / Tmax / bioavailability / half-life: SD, plasma; for bioavailability: read-out: F % (absolute bioavailability)
# [2] = biological target: hERG channel (Homo sapiens (Human), UniProt Q12809); test: hERG potassium channel whole-cell patch clamp on CHO-K1 cell line; conditions: for inhibitory effect on hERG channel (in words): human, CHO-K1 cells stably expressing hERG channel, pH 7.4
# Sequence of hERG channel (Q12809 whole entry): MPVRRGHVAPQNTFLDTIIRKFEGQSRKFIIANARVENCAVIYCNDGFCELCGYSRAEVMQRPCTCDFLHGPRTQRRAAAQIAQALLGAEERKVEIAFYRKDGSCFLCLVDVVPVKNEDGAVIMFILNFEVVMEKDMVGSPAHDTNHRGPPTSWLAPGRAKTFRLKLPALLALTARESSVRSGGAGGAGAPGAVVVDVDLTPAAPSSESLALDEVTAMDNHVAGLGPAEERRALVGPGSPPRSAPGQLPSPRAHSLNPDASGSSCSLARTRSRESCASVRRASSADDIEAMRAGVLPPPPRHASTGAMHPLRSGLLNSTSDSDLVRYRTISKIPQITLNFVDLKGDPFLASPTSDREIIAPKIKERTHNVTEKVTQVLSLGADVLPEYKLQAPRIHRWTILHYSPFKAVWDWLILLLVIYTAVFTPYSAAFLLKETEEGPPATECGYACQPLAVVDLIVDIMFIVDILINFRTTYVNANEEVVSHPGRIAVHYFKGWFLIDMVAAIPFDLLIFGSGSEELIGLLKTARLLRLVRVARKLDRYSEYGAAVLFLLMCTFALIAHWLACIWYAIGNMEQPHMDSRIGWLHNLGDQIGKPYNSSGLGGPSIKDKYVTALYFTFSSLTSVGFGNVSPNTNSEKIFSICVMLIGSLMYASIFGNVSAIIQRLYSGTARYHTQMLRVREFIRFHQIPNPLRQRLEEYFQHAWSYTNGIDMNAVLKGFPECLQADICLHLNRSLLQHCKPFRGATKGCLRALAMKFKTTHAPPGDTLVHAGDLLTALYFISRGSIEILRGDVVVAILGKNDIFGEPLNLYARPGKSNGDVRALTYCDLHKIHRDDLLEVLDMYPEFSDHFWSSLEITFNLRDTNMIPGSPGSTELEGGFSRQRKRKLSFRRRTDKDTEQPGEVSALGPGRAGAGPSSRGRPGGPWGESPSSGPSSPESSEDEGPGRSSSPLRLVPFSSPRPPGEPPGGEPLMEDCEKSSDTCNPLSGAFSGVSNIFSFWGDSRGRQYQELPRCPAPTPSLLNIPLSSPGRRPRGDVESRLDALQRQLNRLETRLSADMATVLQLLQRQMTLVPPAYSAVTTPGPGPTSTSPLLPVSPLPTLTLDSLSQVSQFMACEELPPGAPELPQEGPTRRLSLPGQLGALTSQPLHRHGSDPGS
# Source text: Experiment 8: Detection of Inhibitory Effect of the Compounds of the Present Invention on hERG Potassium Channel by the Patch Clamp Method
# Rapidly activated human delayed rectifying outward potassium current (IKr) is mainly mediated by hERG ion channel and is involved in repolarization of human cardiac muscle cell. Clinically, blocking of the current by a drug is the main cause of QT interval prolongation syndrome, acute arrhythmia and even sudden death. The main purpose of the experiment is to test the blocking effect of the compounds of the present invention on hERG channel, and to determine the half maximal inhibitory concentration (IC50) of the compounds.
# The experiment mainly included: (1) recording hERG current by patch clamp technique on CHO-K1 cell line which stably expressed hERG channel; (2) calculating the Inhibition rate of each concentration according to hERG tail current; (3) testing each compound at 5 concentrations to calculate IC50; (4) testing 2 cells at each concentration; (5) a positive control.
# The structures and synthesis of Compound 88 (WO-88) and Compound 93 (WO-93) as disclosed in WO200119802A were described in Example 55 and Example 56.
# Drug for positive control: Amitriptyline hydrochloride (Sigma-Aldrich, an international standard blocker for hERG channel)
# Pippette Solution (in mM): KCl 120, KOH 31.25, CaCl2 5.374, MgCl2 1.75, Ethylene glycol-bis(β-aminoethyl ether)-N,N,N′,N′-tetraacetic acid (EGTA) 10, HEPES 10, Na2-ATP 4, adjusted to a pH of 7.2 with 1N potassium hydroxide; adjusted to an osmotic pressure of 280-290 mOsm; preserved at −20° C. after filtration.
# Preparation of compounds: Some of the compounds of the present invention and Amitriptyline hydrochloride as the positive control drug were separately dissolved in 100% DMSO (Merck, 61850125001730), then prepared into stock solutions of 30 mM. Before the experiment, the above stock solutions were diluted with DMSO to a concentration of 1000-fold of the experimental concentration. Then the diluted solutions were further diluted with extracellular solution by 1:1000 to the required experimental concentration. The final concentration of DMSO in the extracellular solution was kept as 0.1%.
# Stable cell line CHO-hERG was purchased from AVIVA Company. The hERG current on the cell line was recorded. For the purpose of quality control, the smallest seal resistance was no less than 500 MΩ, and the hERG current was no less than 0.4 nA.
# The hERG current was recorded by a whole-cell patch clamp technique. Cell suspension was added into a 35-mm culture dish. The culture dish was placed on the objective table of an inverted microscope. Upon cell attachment, perfusion was conducted with the extracellular solution at a flow rate of 1-2 mL/min.
# Glass microelectrode with the pipette tip resistance of 2-5 MΩ was controlled by a microelectrode puller via a two-step process. After the whole-cell record was set up, the clamp potential was kept at −80 mV. The cell was depolarized to +60 mV by applying a voltage stimulus, and then repolarized to −50 mV to obtain the hERG tail current. Recordation was conducted after the current was stable. The extracellular perfusion was started from the lowest concentration, with 5-10 min for each concentration until the current was stable, and then conducted with the next concentration.
# Stimulus payment and signal collection were performed by A/D-D/A conversion using Digidata 1440 (Molecular Devices) and pCLAMP software (Version 10.2, Molecular Devices). Signal amplification was performed on a patch clamp amplifier (Multiclamp 700B, Molecular Devices), with a filter of 1 KHz. Further data analysis and curve fitting were conducted by Clampfit (version 10.2, Molecular Devices) and Prism. The data were presented as mean value±standard deviation.
# In the process of data analysis, the peak value and the baseline of the tail current were corrected when determining the blocking effect on hERG.
# [3] = test system: length of New Zealand rabbit's penis; test: Pharmacological activity in vivo (oral administration, 100 mg/kg), rabbit penis length; set-up: species or system New Zealand rabbits; conditions: Table 7; oral 100 mg/kg; 0-240 min
# Source text: Experiment 6: Assay of Pharmacological Activity In Vivo (Oral Administration)
# After accommodating with the environment, the New Zealand rabbits were grabbed everyday. When the rabbits were accustomed to the repeated grabbing, drug administration was began. The animals were randomly divided into groups by weight, with 6 rabbits of each group. The test compounds were separately dissolved in menstruum. […] The corresponding test compounds were orally administrated to animals of each group. The dosage was 100 mg/kg, and the administration volume was 1 mL/kg. The length of the rabbit's penis was measured with a digital caliper before and 5, 10, 15, 30, 50, 60, 90, 120, 180 and 240 min after the administration. Touch of the rabbit's penis by the caliper was avoided during the measurements.
# [4] = test system: PDE-6; conditions: cited from earlier work
# [5] = biological target: PDE-11 (Homo sapiens (Human), UniProt Q9HCR9); conditions: cited from earlier work
# Sequence of PDE-11 (Q9HCR9 whole entry): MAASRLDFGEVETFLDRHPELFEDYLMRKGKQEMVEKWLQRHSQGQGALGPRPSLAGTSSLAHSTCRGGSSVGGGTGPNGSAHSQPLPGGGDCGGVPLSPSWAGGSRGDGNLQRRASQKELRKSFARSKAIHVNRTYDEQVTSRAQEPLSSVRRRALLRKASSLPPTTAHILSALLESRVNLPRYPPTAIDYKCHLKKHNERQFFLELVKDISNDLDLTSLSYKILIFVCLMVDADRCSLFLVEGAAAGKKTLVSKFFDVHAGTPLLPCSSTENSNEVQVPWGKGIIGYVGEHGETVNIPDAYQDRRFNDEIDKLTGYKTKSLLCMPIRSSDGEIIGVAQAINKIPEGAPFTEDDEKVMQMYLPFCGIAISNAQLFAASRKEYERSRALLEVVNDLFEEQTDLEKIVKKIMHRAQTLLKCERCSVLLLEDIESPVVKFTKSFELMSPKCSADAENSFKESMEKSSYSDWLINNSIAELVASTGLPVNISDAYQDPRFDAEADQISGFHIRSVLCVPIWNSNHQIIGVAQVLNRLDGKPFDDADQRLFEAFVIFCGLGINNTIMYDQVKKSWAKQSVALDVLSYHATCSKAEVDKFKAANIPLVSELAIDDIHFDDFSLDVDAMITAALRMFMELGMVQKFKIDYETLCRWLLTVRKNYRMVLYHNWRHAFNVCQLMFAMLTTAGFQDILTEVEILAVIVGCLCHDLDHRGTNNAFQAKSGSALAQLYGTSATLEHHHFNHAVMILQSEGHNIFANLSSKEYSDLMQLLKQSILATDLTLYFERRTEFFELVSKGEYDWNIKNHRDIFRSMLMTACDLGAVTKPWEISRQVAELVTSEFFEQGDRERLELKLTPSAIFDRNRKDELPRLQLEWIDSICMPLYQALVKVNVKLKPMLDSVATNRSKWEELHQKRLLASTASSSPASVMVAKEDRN
# [6] = in human; cited from earlier work
# [7] = test system: length of New Zealand rabbit's penis; test: Pharmacological activity in vivo (intravenous injection), rabbit penis length; set-up: species or system New Zealand rabbits; conditions: iv 10 mg/kg, sodium nitroprussiate 0.2 mg/kg iv 5 min after, 0-120 min
# Experimental: Experiment 5: Assay of Pharmacological Activity In Vivo (Intravenous Injection)
# After accommodating with the environment, the New Zealand rabbits were grabbed everyday. When the rabbits were accustomed to the repeated grabbing, drug administration was began. The animals were randomly divided into groups by weight. The test compounds were separately dissolved in menstruum. […] The corresponding test compounds were injected into the auricular veins of animals of each group. The dosage of the compounds in Table 5 was 10 mg/kg, and the administration volume was 1 mL/kg. The dosage of the compounds in Table 6 was 10 mg/kg, and the administration volume was 2 mL/kg. 0.2 mg/kg sodium nitroprussiate was intravenously injected into the rabbits 5 min after the administration of the test compounds, with the administration volume of 0.5 mL/kg.
# The length of the rabbit's penis was measured with a digital caliper before and 10, 15, 30, 50, 60, 90 and 120 min after the administration. Touch of the rabbit's penis by the caliper was avoided during the measurements.
# [8] = biological target: PDE-5 enzyme (human blood platelets) (Homo sapiens (Human), UniProt O76074); test: PDE-5 enzyme assay, [3H]cGMP; type: biochemical
# [9] = test system: length of New Zealand rabbit's penis; test: Pharmacological activity in vivo (oral administration, 70 mg/kg, with SNP), rabbit penis length; set-up: species or system New Zealand rabbits; conditions: Table 8; oral 70 mg/kg; SNP 0.2 mg/kg iv 60 min after; 0-180 min
# Experimental: Experiment 7: Assay of Pharmacological Activity In Vivo (Oral Administration)
# After accommodating with the environment, the New Zealand rabbits were grabbed everyday. When the rabbits were accustomed to the repeated grabbing, drug administration was began. The animals were randomly divided into groups by weight, with 6 rabbits of each group. […] The corresponding test compounds were orally administrated to animals of each group. The dosage was 70 mg/kg, and the administration volume was 1 mL/kg. SNP (0.2 mg/kg, 0.5 mL/kg) was injected into the auricular veins of rabbits 60 min after the administration of the test compounds. The length of the rabbit's penis was measured with a digital caliper before and 10, 15, 30, 50, 60, 65, 70, 75, 90, 110, 120 and 180 min after the administration. Touch of the rabbit's penis by the caliper was avoided during the measurements.
# [10] = biological target: PDE-5A enzyme (Homo sapiens (Human), UniProt O76074); test: Caliper Mobility-Shift PDE-5A Assay; type: biochemical; conditions: Table 1; Avanafil value is the control
# [11] = test system: bovine retinal PDE-6; test: PDE-6 enzyme assay, [3H]cGMP; type: biochemical; conditions: for selectivity on PDE-5 enzyme versus PDE-6 (in words): selectivity >70 called high
# Experimental: (§1) Experiment 3: Measurement of Enzyme Activity on PDE-6 Enzyme In Vitro
# (§2) Source of enzyme: PDE-6, bovine retinal PDE-6
# (§3) Method: The test compound or solvent was incubated at 25° C. for 15 min with enzyme solution (0.2 μg/mL) in Tris-HCl buffer of pH 7.5. 100 μM cGMP and 0.03 μM [^3H] cGMP were then added to activate the reaction. The mixture was incubated for 20 min. The reaction was stopped at 100° C. By addition of snake venom nucleotidase, the product [^3H] GMP was converted into [^3H] Guanosine, which was separated with AG1-X2 resin. The amount of [^3H] Guanosine was measured.
# [12] = biological target: bovine retinal PDE-6 (Bos taurus (Bovine), UniProt P11541+P23439); test: PDE-6 enzyme assay, [3H]cGMP; type: biochemical
# Sequence of bovine retinal PDE-6 (Bos taurus (Bovine), UniProt P11541+P23439) (P11541 whole entry, looked up): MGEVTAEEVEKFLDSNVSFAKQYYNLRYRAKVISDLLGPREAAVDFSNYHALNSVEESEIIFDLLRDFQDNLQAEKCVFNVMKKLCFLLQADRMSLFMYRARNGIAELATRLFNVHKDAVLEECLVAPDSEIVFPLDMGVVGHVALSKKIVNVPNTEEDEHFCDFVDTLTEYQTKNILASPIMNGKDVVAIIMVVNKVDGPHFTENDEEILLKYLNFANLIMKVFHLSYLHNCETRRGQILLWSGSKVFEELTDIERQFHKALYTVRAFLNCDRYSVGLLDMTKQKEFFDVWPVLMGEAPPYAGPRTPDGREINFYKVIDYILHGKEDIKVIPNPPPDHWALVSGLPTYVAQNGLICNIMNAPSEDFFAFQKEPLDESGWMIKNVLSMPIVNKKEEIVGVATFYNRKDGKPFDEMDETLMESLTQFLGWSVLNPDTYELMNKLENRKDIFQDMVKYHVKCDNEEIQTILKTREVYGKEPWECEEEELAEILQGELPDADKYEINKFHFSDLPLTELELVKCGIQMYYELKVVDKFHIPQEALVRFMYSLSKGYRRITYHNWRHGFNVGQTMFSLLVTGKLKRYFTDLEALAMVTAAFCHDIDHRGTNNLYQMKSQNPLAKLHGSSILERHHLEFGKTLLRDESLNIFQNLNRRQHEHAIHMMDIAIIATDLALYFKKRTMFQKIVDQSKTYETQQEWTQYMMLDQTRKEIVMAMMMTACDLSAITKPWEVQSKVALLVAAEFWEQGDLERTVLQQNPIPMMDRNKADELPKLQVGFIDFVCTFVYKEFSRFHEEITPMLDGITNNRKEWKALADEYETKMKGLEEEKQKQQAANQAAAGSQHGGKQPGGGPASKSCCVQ
# Sequence of bovine retinal PDE-6 (Bos taurus (Bovine), UniProt P11541+P23439) (P23439 whole entry, looked up): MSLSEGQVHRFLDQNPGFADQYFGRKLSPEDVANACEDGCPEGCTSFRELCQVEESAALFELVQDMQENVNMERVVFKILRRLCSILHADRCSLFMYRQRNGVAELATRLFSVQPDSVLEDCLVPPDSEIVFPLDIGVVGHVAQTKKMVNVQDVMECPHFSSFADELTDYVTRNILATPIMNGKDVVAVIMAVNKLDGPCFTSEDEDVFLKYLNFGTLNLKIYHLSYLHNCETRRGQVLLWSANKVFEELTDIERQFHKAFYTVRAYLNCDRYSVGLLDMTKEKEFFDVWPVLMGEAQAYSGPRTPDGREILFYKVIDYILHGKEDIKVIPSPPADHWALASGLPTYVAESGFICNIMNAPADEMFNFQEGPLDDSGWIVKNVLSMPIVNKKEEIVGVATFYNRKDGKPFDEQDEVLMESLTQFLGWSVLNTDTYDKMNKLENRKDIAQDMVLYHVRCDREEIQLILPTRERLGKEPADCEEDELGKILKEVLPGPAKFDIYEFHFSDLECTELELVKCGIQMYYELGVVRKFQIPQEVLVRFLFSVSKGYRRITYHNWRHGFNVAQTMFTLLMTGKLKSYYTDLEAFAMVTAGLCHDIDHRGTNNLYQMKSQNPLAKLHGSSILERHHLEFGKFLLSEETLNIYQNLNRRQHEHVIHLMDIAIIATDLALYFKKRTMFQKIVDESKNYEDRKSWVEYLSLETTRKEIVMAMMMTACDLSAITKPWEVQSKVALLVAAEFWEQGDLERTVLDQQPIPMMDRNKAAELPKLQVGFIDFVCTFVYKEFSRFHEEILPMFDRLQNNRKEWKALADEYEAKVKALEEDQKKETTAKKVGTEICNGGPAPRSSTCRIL
# Experimental: as §1, §2, §3
# [13] = po, intragastric administration, 2 mg/kg
# [14] = Table 2, human blood platelet enzyme, read-out: IC50 on PDE-5
# [15] = Table 4-1, read-out: PDE-6 (IC50 nM)
# [16] = Table 4-1, read-out: PDE-5 (IC50 nM)
# [17] = Table 3, read-out: IC50 on PDE-6
# [18] = po, intragastric administration, 5 mg/kg
SMILES,"bioavailability [1, 13] [%]","AUC(0-inf) ([1]; intravenous injection, 2 mg/kg) [ng·h/mL]","Cl_obs ([1]; intravenous injection, 2 mg/kg) [mL/min/kg]","Vss_obs ([1]; intravenous injection, 2 mg/kg) [L/kg]",IC50 [2] [nM],AUC of penis length [3] [mm × min],half-life [6],"AUC of penis length ([7]; Table 6, 2 mL/kg) [mm × min]",inhibitory effect on hERG channel (in words) [2],"IC50 [8, 14] [nM]",AUC of penis length [9] [mm × min],selectivity on PDE-5 enzyme versus PDE-6 (in words) [11],"IC50 [12, 15] [nM]","IC50 [8, 16] [nM]","IC50 [12, 17] [nM]",further results
"COc1ccc(CN=c2[nH]c(N3CCC[C@H]3CO)ncc2C(=O)NCc2ncccn2)cc1Cl [Avanafil, reference compound]",4.5,382,88.5,3.56,14600,199.4,about 1.2 h,421.2,,,,,,,,"AUC(0-inf) [1, 13]: 50 ng·h/mL; Cmax [1, 13]: 18 ng/mL; Tmax [1, 13]: 0.33 h; ratio PDE-6/5 [4]: about 120; inhibitory effect on PDE-11 [5]: no inhibitory effect on PDE-11; AUC of penis length ([7]; Table 5, 1 mL/kg): 317.9 mm × min"
"COc1ccc(CNc2nc(N3CC4CC4C3)ncc2C(=O)NCc2ccccc2)cc1Cl (stereo not drawn) [Compound 3, N-benzyl-2-(3-azabicyclo[3.1.0]hexan-3-yl)-4-((3-chloro-4-methoxybenzyl)amino)pyrimidine-5-formamide]",,,,,> 27800,,,,"none of Compound 3, 11 and 50 of the present invention had a significant inhibitory effect",0.91,46.26,higher selectivity on PDE-5 enzyme than to PDE-6,8.89,,,IC50 [10]: 12.9 nM
"COc1ccc(CNc2nc(N3CCC4(CC4)C3)ncc2C(=O)N[C@H]2CC[C@H](O)CC2)cc1Cl [Compound 38, 4-((3-chloro-4-methoxybenzyl)amino)-N-(trans-4-hydroxycyclohexyl)-2-(5-azaspiro[2.4]heptan-5-yl)pyrimidine-5-formamide]",35,,,,,802.7,,772.8,,0.8,654.0,,58,0.8,58,"half-life [1, 13]: 2.11 h; half-life ([1]; intravenous injection, 1 mg/kg): 3.5 h; Cl_obs ([1]; intravenous injection, 1 mg/kg): 16.8 mL/min/kg; Vss_obs ([1]; intravenous injection, 1 mg/kg): 4.47 L/kg"
"COc1ccc(CNc2nc(N3CC4CC4C3)ncc2C(=O)N[C@H]2CC[C@H](O)CC2)cc1C (stereo partly drawn) [Compound 50, 2-(3-azabicyclo[3.1.0]hexan-3-yl)-N-((trans)-4-hydroxycyclohexyl)-4-((4-methoxy-3-methylbenzyl)amino)pyrimidine-5-formamide]",,2580,13,4.48,> 30000,,,,"none of Compound 3, 11 and 50 of the present invention had a significant inhibitory effect",7.72,,higher selectivity on PDE-5 enzyme than to PDE-6,660,7.72,660,"AUC(0-inf) [1, 18]: 4720 ng·h/mL; Cmax [1, 18]: 377 ng/mL; Tmax [1, 18]: 6 h; half-life [1, 18]: 5.4 h; bioavailability [1, 18]: 65%; half-life ([1]; intravenous injection, 2 mg/kg): 4.1 h; Selectivity (PDE-6/PDE-5) ([11]; IC50 for PDE-6/IC50 for PDE-5): 85"
CN1CC(=O)N2[C@H](c3ccc4c(c3)OCO4)c3[nH]c4ccccc4c3C[C@@H]2C1=O [Tadalafil],,,,,,,about 16 h,,,,,,,,,
